Test results from US9012497B2, “Cyclohexyl carbamate compounds as active anti-cellulite ingredients” (Symrise AG, priority 2010, dated 2015).

Legend:
[1] = target: T1, lipoprotein lipase (LPL) (Mus musculus, UniProt P11152); test: Inhibition of LPL (lipogenesis assay), MUF oleate hydrolysis; type: biochemical; conditions: LPL obtained from differentiated 3T3-L1 cells; mean values of at least 2 independent tests
T1 construct: endogenous in cells; host or cells: differentiated 3T3-L1 cells (mouse); heparin-released supernatant
T1 sequence (P11152 28-474): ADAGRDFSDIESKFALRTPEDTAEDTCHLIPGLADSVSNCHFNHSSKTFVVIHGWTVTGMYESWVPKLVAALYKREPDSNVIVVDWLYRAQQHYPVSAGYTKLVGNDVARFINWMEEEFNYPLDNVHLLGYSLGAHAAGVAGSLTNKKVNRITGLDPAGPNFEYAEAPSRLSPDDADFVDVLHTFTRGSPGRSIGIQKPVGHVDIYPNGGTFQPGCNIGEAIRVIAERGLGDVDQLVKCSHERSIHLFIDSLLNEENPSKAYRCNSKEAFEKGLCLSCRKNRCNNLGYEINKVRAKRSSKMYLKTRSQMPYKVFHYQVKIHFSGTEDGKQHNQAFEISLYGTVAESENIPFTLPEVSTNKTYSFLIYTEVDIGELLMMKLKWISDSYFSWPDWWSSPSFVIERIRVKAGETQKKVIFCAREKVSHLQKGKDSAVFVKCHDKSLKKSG
Text: (§1) Lipogenesis is perceived as the storage of triglycerides in adipocytes. The inhibition of this storage can take place by means of the inhibition of the activity of extracellular lipoprotein lipase (LPL) in that the hydrolysis of extracellular triglycerides and therefore the absorption of free fatty acids by adipocytes are reduced. As a preliminary test, the inhibition of pancreatic lipase (PL) is investigated.
The results of the inhibition of the PL are used as a preliminary test and are confirmed on LPL. To obtain LPL, 3T3-L1 cells (mouse embryonic fibroblast-like adipocyte cell line) are seeded in a 6-well plate with collagen I-coating in a concentration of 3×10^5 cells/well. The cultivation and differentiation of the cells takes place analogously to the details in Example 2 (adipogenesis assay). During the differentiation LPL is increasingly expressed. The LPL is present in a membrane-bound state and is released by one hour incubation with heparin solution at 2-8° C. to the supernatant of the cells.
The LPL thus obtained, in the presence of test substances in different use concentrations, has methylumbelliferyl oleate (MUF oleate) added as the substrate. Fluorescent methylumbelliferyl (MUF) is produced by hydrolysis of the MUF oleate by LPL and is quantified. The inhibition of the hydrolysis of the MUF oleate is a measure of the inhibition of the activity of the LPL and therefore the lipogenesis.
[formula] wherein MUF test substance=MUF concentration of the wells with test substance and with LPL MUF control=MUF concentration of the wells without test substance, but with LPL MUF control without LPL=MUF concentration of the wells without test substance and without LPL
The IC50 is calculated from the inhibition of the LPL [%] in a series of dilutions of tested samples. This is the concentration at which the activity of the LPL and therefore the lipogenesis is 50% inhibited.

[2] = test system: 3T3-L1 cells; test: Lipolysis assay, in vitro on 3T3-L1 cells, free glycerol release; type: cell-based; conditions: Mus musculus; differentiated 3T3-L1 cells, about 20 hours of incubation; mean values from at least 2 independent tests; read-out: Stimulation of lipolysis EC50
Experimental: 3T3-L1 cells (mouse embryonic fibroblast-like adipocyte cell line) are seeded in a 48-well plate with collagen I-coating in a concentration of 3×10^4 cells/well. The cultivation and differentiation of the cells takes place analogously to the details in Example 2 (adipogenesis assay).
Various concentrations of the test substances are applied to the cells in DMEM, with bovine serum albumen added. After about 20 hours of incubation, the quantification of free glycerol in the supernatant of the cells takes place, which is released by the cells after hydrolysis of triglycerides in the cells and is a measure of the lipolysis of the cells. The quantification of the free glycerol is carried out based on an enzymatic method with a free glycerol reagent.
(§2) The stimulation of the lipolysis in the presence of test substances is calculated according to the following equation:
[formula] wherein A test substance=absorption of the wells with test substance and with cells A test substance without cells=absorption of the wells with test substance without cells (absorption control) A control=absorption of the wells without test substance, but with cells A control without cells=absorption of the wells without test substance and without cells
The EC50 is calculated from the lipolysis stimulation [%] in a series of dilutions of tested samples. This is the concentration at which the lipolysis is 50% stimulated.

[3] = test system: 3T3 cells; test: ATP assay, inhibition of proliferation; type: cell-based; conditions: Mus musculus, NIH3T3, 48 h, non-cytotoxic dilutions, mean values of at least 2 independent tests
Experimental: 3T3 cells (mouse […] fibroblasts) were seeded in 96-well plates. After 24 h cultivation at 37° C. and 5% CO2 in DMEM (Dulbecco's Modified Eagle Medium), cells were treated with test substances for another 48 h. […] ATP content in the cells is measured by
The inhibition of proliferation was calculated by:
[formula] wherein RLU test substance=relative luminescent units of the wells with test substance and with cells RLU control=relative luminescent units of the wells without test substance, but with cells RLU control without cells=relative luminescent units of the wells without test substance and without cells
The IC50 is calculated from the proliferation inhibition [%] in a series of non-cytotoxic dilutions of tested samples. This is the concentration at which the proliferation is 50% inhibited.

[4] = target: T2, pancreatic lipase (PL) (Sus scrofa, UniProt P00591); test: Inhibition of PL, MUF oleate hydrolysis; type: biochemical; conditions: mean values of at least 2 independent tests
T2 construct: purchased Sigma-Aldrich
T2 sequence (P00591 1-450): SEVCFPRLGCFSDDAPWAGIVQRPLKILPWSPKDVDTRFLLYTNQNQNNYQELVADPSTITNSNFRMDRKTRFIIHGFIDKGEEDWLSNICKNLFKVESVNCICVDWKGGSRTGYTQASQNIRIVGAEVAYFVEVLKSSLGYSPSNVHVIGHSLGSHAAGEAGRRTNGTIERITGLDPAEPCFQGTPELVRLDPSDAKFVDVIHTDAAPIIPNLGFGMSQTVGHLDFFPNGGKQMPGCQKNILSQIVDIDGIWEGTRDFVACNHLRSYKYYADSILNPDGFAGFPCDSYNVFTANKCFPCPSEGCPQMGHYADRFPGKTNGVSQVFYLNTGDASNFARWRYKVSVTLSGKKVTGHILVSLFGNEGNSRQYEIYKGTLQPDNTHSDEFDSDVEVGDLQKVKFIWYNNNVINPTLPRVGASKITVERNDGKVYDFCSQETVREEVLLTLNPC
Text: as §1
PL (Sigma-Aldrich), in the presence of test substances in different use concentrations has methylumbelliferyl oleate (MUF oleate) added as a substrate. Fluorescent methylumelliferon (MUF), is produced by hydrolysis of the MUF oleate by PL and is quantified. The inhibition of the hydrolysis of the MUF oleate is a measure of the inhibition of activity of the PL.
[formula] wherein MUF test substance=MUF concentration of the wells with test substance and with PL MUF control=MUF concentration of the wells without test substance, but with PL MUF control without PL=MUF concentration of the wells without test substance and without PL
The IC50 is calculated from the inhibition of the PL [%] in a series of dilutions of tested samples. This is the concentration, at which the activity of the PL is 50% inhibited.

[5] = test system: 3T3-L1 cells; test: Adipogenesis assay (in vitro), Nile Red lipid staining; type: cell-based; conditions: Mus musculus, mean values of at least 2 independent tests, read-out: Adipogenesis inhibition IC50
Experimental: 3T3-L1 cells (mouse embryonic fibroblast-like adipocyte cell line) are seeded in a 48-well plate with collagen I-coating in a concentration of 3×10^4 cells/well. After 72 h cultivation at 37° C. and 5% CO2 in DMEM (Dulbecco's Modified Eagle Medium), enriched with 10% calf serum, various concentrations of the test substances in DMEM, enriched with 10% foetal calf serum and to which are added 1 μg/ml insulin, 0.25 μM dexamethasone and 0.5 mM IBMX (3-isobutyl-1-methylxanthine), are added and incubated for a further 48 h. A media change takes place, in that DMEM, enriched with 10% foetal calf serum and with 1 μg/ml insulin added, are applied. After renewed cultivation for 48 h, a further media change takes place, in which DMEM, enriched with 10% foetal calf serum, is applied.
After a further incubation for 72 h, the intracellularly stored lipids are quantified as a measure for the differentiation of the cells by measuring the fluorescence after staining of the lipids with the fluorescent dye Nile Red.
The inhibition of the adipogenesis in the presence of the test substances is calculated according to the following equation:
[formula] wherein RFU test substance=relative fluorescent units of the wells with test substance and with cells RFU control=relative fluorescent units of the wells without test substance, but with cells RFU control without cells=relative fluorescent units of the wells without test substance and without cells The IC50 is calculated from the adipogenesis inhibition [%] in a series of dilutions of tested samples. This is the concentration at which the adipogenesis is 50% inhibited.

[6] = test system: ex vivo pig skin model including subcutis fat layer; test: Lipolysis assay, ex vivo pig skin model, free glycerol release; type: cell-based; conditions: conc. 0.1% in cosmetic test preparation, topical on ex vivo pig skin, 24 hours, versus placebo
Text: Full thickness pig skin patches (pig skin model including subcutis fat layer as described in EP 1 939 279) are excised from the dorsal part of young pig slaughtered for meat. The ex vivo pig skin models have a size of 7×3 mm (diameter×height). They are placed on a titanium grid dipped in culture medium. On top of the skin samples formulations are applied. In parallel to a cosmetic test preparation containing one or more compounds of formula (I) a placebo preparation without any compound of formula (I) is applied as reference (blank).
After 24 hours of incubation, the quantification of free glycerol in the medium surrounding the pig skin models was performed. The glycerol is released by the cells after hydrolysis of triglycerides in the cells of the adipose tissue and is a measure of the lipolysis of the pig skin models. The quantification of the free glycerol is carried out based on an enzymatic method with a free glycerol reagent.
Cosmetic Test Preparation:
Phases A and B are heated to 70° C. separately. Pemulen TR1 as well as Ultrez-21 are dispersed in phase B when heated to 70° C. Phase B/C is added to phase A by mixing with an Ultra Turrax, followed by emulsifying. Phase D is slowly added to phase A/B/C using a paddle mixer and a pH 5.5-6 is adjusted. The formulation is cooled down while mixing with a paddle mixer. Phase E is prepared by dissolving one or more compounds of formula (I) in Hydrolite-5. Subsequently, phase E is added to the mixture of phase A-D.
as §2
[formula] wherein A test substance=absorption of the wells with medium of ex vivo skin models, on which the formulation containing the test substance was applied A placebo=absorption of the wells with medium of ex vivo skin models, on which the placebo without test substance was applied

| IC50 [1] | IC50 [4] | Compound | EC50 [2] | IC50 [3] | IC50 [5] | Stimulation of lipolysis [6] |
| --- | --- | --- | --- | --- | --- | --- |
| 720 µM | 350 µM | CCC(C)NC(=O)OC1CC(C)CC(C)(C)C1 (centres unmarked) [BIO1844, sec-Butyl-carbamic acid 3,3,5-trimethyl-cyclohexyl ester] | 210 µM | 478 µM | 89 µM |  |
|  |  | CCc1ccc(NC(=O)OC2CC(C)CC(C)C2)cc1 (centres unmarked) [BIO1823, (4-Ethyl-phenyl)-carbamic acid 3,5-dimethyl-cyclohexyl ester] | 460 µM | 1390 µM | 62 µM | 28% |
| 1020 µM | 900 µM | CCCCNC(=O)OC1CC(C)CC(C)(C)C1 (centres unmarked) [BIO1616, Butyl-carbamic acid 3,3,5-trimethyl-cyclohexyl ester] | 450 µM | 220 µM | 120 µM |  |
